Legend:
persian speedwell = test: Test Example 4: herbicidal effect by soil treatment (Table 19, symbol R); format: in vivo, Persian speedwell (Veronica persica); details: amount of applied herbicide 320 g/ha
Method in brief: (§1)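 In this soil treatment, the formulated compound reached the seeds only through the soil: seeds were buried about 1.5 cm deep in sterilized diluvial soil, then the diluted emulsion was sprayed over the surface. After three weeks at 25° C. to 30° C. in a greenhouse, effects were graded on criteria from an earlier test.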

wild oat [1] = test: Test Example 4: herbicidal effect by soil treatment (Table 19, symbol I); format: in vivo, wild oat (Avena fatua); details: amount of applied herbicide 320 g/ha
Method in brief: as §1

windgrass = test: Test Example 4: herbicidal effect by soil treatment (Table 19, symbol L); format: in vivo, windgrass (Apera spica-venti); details: amount of applied herbicide 320 g/ha
Method in brief: as §1

velvetleaf = test: Test Example 4: herbicidal effect by soil treatment (Table 19, symbol M); format: in vivo, velvetleaf (Abutilon theophrasti); details: amount of applied herbicide 320 g/ha
Method in brief: as §1

southern crabgrass = test: Test Example 5: herbicidal effect by foliage application, plastic box (Table 20, symbol F); format: in vivo, southern crabgrass (Digitaria ciliaris); details: foliage application, 320 g/ha; for herbicidal effect on southern crabgrass (F): three weeks after application
Method in brief: (§2)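 Plants were sown into sterilized diluvial soil under about 1.5 cm cover and kept in a greenhouse at 25° C. to 30° C. Fourteen days on, foliage received an even spray of the diluted emulsion. Herbicidal or crop effect was judged three weeks afterwards.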

Italian ryegrass = test: Test Example 4: herbicidal effect by soil treatment (Table 19, symbol K); format: in vivo, Italian ryegrass (Lolium multiflorum); details: amount of applied herbicide 320 g/ha
Method in brief: as §1

oval-leafed pondweed [2] = test: Test Example 1: herbicidal activity, application before weed generation under submerged conditions (Table 16, symbol C); format: in vivo, oval-leafed pondweed (Monochoria vaginalis); details: amount of applied herbicide 320 g/ha
Method in brief: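 Emulsion formulation, water-diluted to set dose, was put onto the flooded surface (4 cm depth, alluvial soil) the same day weeds were sown and 2.5-leaf rice transplanted. After 3 weeks at 25-30 °C under glass, each species was rated 0 (≤5% kill) to 5 (≥90% kill).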

lambsquarters = test: Test Example 4: herbicidal effect by soil treatment (Table 19, symbol O); format: in vivo, lambsquarters (Chenopodium album); details: amount of applied herbicide 320 g/ha
Method in brief: as §1

wild oat [3] = test: Test Example 5: herbicidal effect by foliage application, plastic box (Table 20, symbol I); format: in vivo, wild oat (Avena fatua); details: foliage application, 320 g/ha; for herbicidal effect on wild oat (I): three weeks after application
Method in brief: as §2

Japanese bulrush = test: Test Example 2: herbicidal activity, application during weed generation under submerged conditions (Table 17, symbol B); format: in vivo, Japanese bulrush (Schoenoplectus juncoides); details: AAH 320 g/ha; application during weed generation, submerged conditions
Method in brief: (§3)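 Effect on each weed is rated three weeks post-treatment, using the same scoring criteria as the preceding test. Plants grow from mixed-sown seed in flooded alluvial soil (4 cm water) at 25° C. to 30° C., and are treated at one to two leaves with diluted emulsion dropped onto the water.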

chickweed [4] = test: Test Example 4: herbicidal effect by soil treatment (Table 19, symbol P); format: in vivo, common chickweed (Stellaria media); details: amount of applied herbicide 320 g/ha
Method in brief: as §1

late watergrass = test: Test Example 2: herbicidal activity, application during weed generation under submerged conditions (Table 17, symbol A); format: in vivo, late watergrass (Echinochloa oryzicola); details: AAH 320 g/ha; application during weed generation, submerged conditions
Method in brief: as §3

false cleavers = test: Test Example 4: herbicidal effect by soil treatment (Table 19, symbol Q); format: in vivo, false cleavers (Galium spurium); details: amount of applied herbicide 320 g/ha
Method in brief: as §1

barnyard grass = test: Test Example 4: herbicidal effect by soil treatment (Table 19, symbol H); format: in vivo, barnyard grass (Echinochloa crus-galli); details: amount of applied herbicide 320 g/ha
Method in brief: as §1

oval-leafed pondweed [5] = test: Test Example 2: herbicidal activity, application during weed generation under submerged conditions (Table 17, symbol C); format: in vivo, oval-leafed pondweed (Monochoria vaginalis); details: AAH 320 g/ha; application during weed generation, submerged conditions
Method in brief: as §3

chickweed [6] = test: Test Example 5: herbicidal effect by foliage application, plastic box (Table 20, symbol P); format: in vivo, common chickweed (Stellaria media); details: foliage application, 320 g/ha, evaluated 3 weeks after application
Method in brief: as §2

[7] = evaluated 3 weeks after application

SMILES: COc1ccc(-c2oc3ccc(Cl)cc3c2-c2c(O)c(C)nn(C)c2=O)cc1 [9-002]
- R: persian speedwell, herbicidal effect grade (persian speedwell): 4 (Herbicidal rate of 70% or more and less than 90%)
- I: wild oat, herbicidal effect grade (wild oat [1]): 0 (Herbicidal rate of 5% or less (almost no effect))
- L: windgrass, herbicidal effect grade (windgrass): 5 (Herbicidal rate of 90% or more (almost completely withered))
- M: velvetleaf, herbicidal effect grade (velvetleaf): 2 (Herbicidal rate of 20% or more and less than 40%)
- herbicidal effect on southern crabgrass (F) (southern crabgrass): 0 (Herbicidal rate of 5% or less (almost no effect))
- K: Italian ryegrass, herbicidal effect grade (Italian ryegrass): 3 (Herbicidal rate of 40% or more and less than 70%)
- Herbicidal effect, C: oval-leafed pondweed (oval-leafed pondweed [2]): 2 (Herbicidal rate of 20% or more and less than 40%)
- O: lambsquarters, herbicidal effect grade (lambsquarters): 4 (Herbicidal rate of 70% or more and less than 90%)
- herbicidal effect on wild oat (I) (wild oat [3]): 0 (Herbicidal rate of 5% or less (almost no effect))
- herbicidal effect rating, B: Japanese bulrush (Japanese bulrush): 0 (Herbicidal rate of 5% or less (almost no effect))
- P: chickweed, herbicidal effect grade (chickweed [4]): 4 (Herbicidal rate of 70% or more and less than 90%)
- herbicidal effect rating, A: late watergrass (late watergrass): 0 (Herbicidal rate of 5% or less (almost no effect))
- Q: false cleavers, herbicidal effect grade (false cleavers): 0 (Herbicidal rate of 5% or less (almost no effect))
- H: barnyard grass, herbicidal effect grade (barnyard grass): 2 (Herbicidal rate of 20% or more and less than 40%)
- herbicidal effect rating, C: oval-leafed pondweed (oval-leafed pondweed [5]): 3 (Herbicidal rate of 40% or more and less than 70%)

SMILES: CCOc1ccc(-c2oc3ccc(F)cc3c2-c2c(O)c(C)nn(C)c2=O)cc1 [9-021]
- R: persian speedwell, herbicidal effect grade (persian speedwell): 5 (Herbicidal rate of 90% or more (almost completely withered))
- I: wild oat, herbicidal effect grade (wild oat [1]): 0 (Herbicidal rate of 5% or less (almost no effect))
- L: windgrass, herbicidal effect grade (windgrass): 3 (Herbicidal rate of 40% or more and less than 70%)
- M: velvetleaf, herbicidal effect grade (velvetleaf): 3 (Herbicidal rate of 40% or more and less than 70%)
- herbicidal effect on southern crabgrass (F) (southern crabgrass): 4 (Herbicidal rate of 70% or more and less than 90%)
- K: Italian ryegrass, herbicidal effect grade (Italian ryegrass): 5 (Herbicidal rate of 90% or more (almost completely withered))
- Herbicidal effect, C: oval-leafed pondweed (oval-leafed pondweed [2]): 5 (Herbicidal rate of 90% or more (almost completely withered))
- O: lambsquarters, herbicidal effect grade (lambsquarters): 4 (Herbicidal rate of 70% or more and less than 90%)
- herbicidal effect on wild oat (I) (wild oat [3]): 4 (Herbicidal rate of 70% or more and less than 90%)
- herbicidal effect rating, B: Japanese bulrush (Japanese bulrush): 3 (Herbicidal rate of 40% or more and less than 70%)
- P: chickweed, herbicidal effect grade (chickweed [4]): 0 (Herbicidal rate of 5% or less (almost no effect))
- herbicidal effect rating, A: late watergrass (late watergrass): 4 (Herbicidal rate of 70% or more and less than 90%)
- Q: false cleavers, herbicidal effect grade (false cleavers): 0 (Herbicidal rate of 5% or less (almost no effect))
- H: barnyard grass, herbicidal effect grade (barnyard grass): 4 (Herbicidal rate of 70% or more and less than 90%)
- herbicidal effect rating, C: oval-leafed pondweed (oval-leafed pondweed [5]): 4 (Herbicidal rate of 70% or more and less than 90%)

SMILES: CCCOc1ccc(-c2oc3ccc(F)cc3c2-c2c(O)c(C)nn(C)c2=O)cc1 [9-023]
- R: persian speedwell, herbicidal effect grade (persian speedwell): 4 (Herbicidal rate of 70% or more and less than 90%)
- I: wild oat, herbicidal effect grade (wild oat [1]): 0 (Herbicidal rate of 5% or less (almost no effect))
- L: windgrass, herbicidal effect grade (windgrass): 3 (Herbicidal rate of 40% or more and less than 70%)
- M: velvetleaf, herbicidal effect grade (velvetleaf): 3 (Herbicidal rate of 40% or more and less than 70%)
- herbicidal effect on southern crabgrass (F) (southern crabgrass): 4 (Herbicidal rate of 70% or more and less than 90%)
- K: Italian ryegrass, herbicidal effect grade (Italian ryegrass): 5 (Herbicidal rate of 90% or more (almost completely withered))
- Herbicidal effect, C: oval-leafed pondweed (oval-leafed pondweed [2]): 5 (Herbicidal rate of 90% or more (almost completely withered))
- O: lambsquarters, herbicidal effect grade (lambsquarters): 5 (Herbicidal rate of 90% or more (almost completely withered))
- herbicidal effect on wild oat (I) (wild oat [3]): 3 (Herbicidal rate of 40% or more and less than 70%)
- herbicidal effect rating, B: Japanese bulrush (Japanese bulrush): 3 (Herbicidal rate of 40% or more and less than 70%)
- P: chickweed, herbicidal effect grade (chickweed [4]): 0 (Herbicidal rate of 5% or less (almost no effect))
- herbicidal effect rating, A: late watergrass (late watergrass): 5 (Herbicidal rate of 90% or more (almost completely withered))
- Q: false cleavers, herbicidal effect grade (false cleavers): 0 (Herbicidal rate of 5% or less (almost no effect))
- H: barnyard grass, herbicidal effect grade (barnyard grass): 5 (Herbicidal rate of 90% or more (almost completely withered))
- herbicidal effect rating, C: oval-leafed pondweed (oval-leafed pondweed [5]): 5 (Herbicidal rate of 90% or more (almost completely withered))

SMILES: CSc1ccc(-c2oc3ccc(F)cc3c2-c2c(O)c(C)nn(C)c2=O)cc1 [9-037]
- R: persian speedwell, herbicidal effect grade (persian speedwell): 4 (Herbicidal rate of 70% or more and less than 90%)
- I: wild oat, herbicidal effect grade (wild oat [1]): 0 (Herbicidal rate of 5% or less (almost no effect))
- L: windgrass, herbicidal effect grade (windgrass): 0 (Herbicidal rate of 5% or less (almost no effect))
- M: velvetleaf, herbicidal effect grade (velvetleaf): 3 (Herbicidal rate of 40% or more and less than 70%)
- herbicidal effect on southern crabgrass (F) (southern crabgrass): 4 (Herbicidal rate of 70% or more and less than 90%)
- K: Italian ryegrass, herbicidal effect grade (Italian ryegrass): 5 (Herbicidal rate of 90% or more (almost completely withered))
- Herbicidal effect, C: oval-leafed pondweed (oval-leafed pondweed [2]): 0 (Herbicidal rate of 5% or less (almost no effect))
- O: lambsquarters, herbicidal effect grade (lambsquarters): 2 (Herbicidal rate of 20% or more and less than 40%)
- herbicidal effect on wild oat (I) (wild oat [3]): 5 (Herbicidal rate of 90% or more (almost completely withered))
- herbicidal effect rating, B: Japanese bulrush (Japanese bulrush): 2 (Herbicidal rate of 20% or more and less than 40%)
- herbicidal effect rating, A: late watergrass (late watergrass): 0 (Herbicidal rate of 5% or less (almost no effect))
- Q: false cleavers, herbicidal effect grade (false cleavers): 0 (Herbicidal rate of 5% or less (almost no effect))
- H: barnyard grass, herbicidal effect grade (barnyard grass): 2 (Herbicidal rate of 20% or more and less than 40%)
- herbicidal effect rating, C: oval-leafed pondweed (oval-leafed pondweed [5]): 2 (Herbicidal rate of 20% or more and less than 40%)

SMILES: COCCOc1ccc(-c2oc3ccc(F)cc3c2-c2c(O)c(C)nn(C)c2=O)cc1 [9-045]
- R: persian speedwell, herbicidal effect grade (persian speedwell): 4 (Herbicidal rate of 70% or more and less than 90%)
- I: wild oat, herbicidal effect grade (wild oat [1]): 0 (Herbicidal rate of 5% or less (almost no effect))
- M: velvetleaf, herbicidal effect grade (velvetleaf): 5 (Herbicidal rate of 90% or more (almost completely withered))
- F (southern crabgrass) herbicidal effect grade (southern crabgrass; [7]): 5 (Herbicidal rate of 90% or more (almost completely withered))
- K: Italian ryegrass, herbicidal effect grade (Italian ryegrass): 5 (Herbicidal rate of 90% or more (almost completely withered))
- Herbicidal effect, C: oval-leafed pondweed (oval-leafed pondweed [2]): 5 (Herbicidal rate of 90% or more (almost completely withered))
- O: lambsquarters, herbicidal effect grade (lambsquarters): 5 (Herbicidal rate of 90% or more (almost completely withered))
- P (chickweed) herbicidal effect grade (chickweed [6]): 5 (Herbicidal rate of 90% or more (almost completely withered))
- I (wild oat) herbicidal effect grade (wild oat [3]; [7]): 2 (Herbicidal rate of 20% or more and less than 40%)
- herbicidal effect rating, B: Japanese bulrush (Japanese bulrush): 3 (Herbicidal rate of 40% or more and less than 70%)
- P: chickweed, herbicidal effect grade (chickweed [4]): 1 (Herbicidal rate of 5% or more and less than 20%)
- herbicidal effect rating, A: late watergrass (late watergrass): 3 (Herbicidal rate of 40% or more and less than 70%)
- Q: false cleavers, herbicidal effect grade (false cleavers): 0 (Herbicidal rate of 5% or less (almost no effect))
- H: barnyard grass, herbicidal effect grade (barnyard grass): 5 (Herbicidal rate of 90% or more (almost completely withered))
- herbicidal effect rating, C: oval-leafed pondweed (oval-leafed pondweed [5]): 5 (Herbicidal rate of 90% or more (almost completely withered))
